≈ marks a conversion by molar mass, not a printed value.
Tests used:
Homo sapiens = organism: Homo sapiens; experiment: Concentration required to inhibit TNF-alpha production was determined in human whole blood; format: functional
[1] = target: Mitogen-activated protein kinase 14 (Homo sapiens, UniProt Q16539)
Description: Inhibitory concentration against alpha mitogen activated protein kinase p38 activity

[2] = target: Epidermal growth factor receptor (Homo sapiens, UniProt P00533); experiment: Inhibitory concentration against Epidermal growth factor receptor tyrosine kinase activity
[3] = oral bioavailability after oral dosing at 1 mg/kg; format: ADME, organism-based; settings: rat, in vivo, read-out: Bioavailabiility
[4] = oral bioavailability after p.o. dosing at 1 mg/kg; settings: rat, in vivo, read-out: Bioavailabiility
[5] = Clearance after i.v. dosing at 1 mg/kg; format: ADME, organism-based; set-up: dose 1 mg/kg, route intravenous; settings: rat, in vivo, iv
[6] = Clearance after oral dosing at 1 mg/kg; format: ADME, organism-based; set-up: dose 1 mg/kg, route oral; settings: rat, in vivo, read-out: Clearance
[7] = Volume of distribution at steady state after i.v. dosing at 1 mg/kg; format: ADME, organism-based; set-up: dose 1 mg/kg, route intravenous; settings: rat, in vivo, iv, read-out: Distribution
[8] = Volume of distribution at steady state after oral dosing at 1 mg/kg; format: ADME, organism-based; set-up: dose 1 mg/kg, route oral; settings: rat, in vivo
[9] = Protein binding was determined in rat plasma; format: ADME, cell-free
[10] = Log D value at pH 7.4; format: physicochemical; settings: buffer

Chain of Epidermal growth factor receptor (P00533 whole entry): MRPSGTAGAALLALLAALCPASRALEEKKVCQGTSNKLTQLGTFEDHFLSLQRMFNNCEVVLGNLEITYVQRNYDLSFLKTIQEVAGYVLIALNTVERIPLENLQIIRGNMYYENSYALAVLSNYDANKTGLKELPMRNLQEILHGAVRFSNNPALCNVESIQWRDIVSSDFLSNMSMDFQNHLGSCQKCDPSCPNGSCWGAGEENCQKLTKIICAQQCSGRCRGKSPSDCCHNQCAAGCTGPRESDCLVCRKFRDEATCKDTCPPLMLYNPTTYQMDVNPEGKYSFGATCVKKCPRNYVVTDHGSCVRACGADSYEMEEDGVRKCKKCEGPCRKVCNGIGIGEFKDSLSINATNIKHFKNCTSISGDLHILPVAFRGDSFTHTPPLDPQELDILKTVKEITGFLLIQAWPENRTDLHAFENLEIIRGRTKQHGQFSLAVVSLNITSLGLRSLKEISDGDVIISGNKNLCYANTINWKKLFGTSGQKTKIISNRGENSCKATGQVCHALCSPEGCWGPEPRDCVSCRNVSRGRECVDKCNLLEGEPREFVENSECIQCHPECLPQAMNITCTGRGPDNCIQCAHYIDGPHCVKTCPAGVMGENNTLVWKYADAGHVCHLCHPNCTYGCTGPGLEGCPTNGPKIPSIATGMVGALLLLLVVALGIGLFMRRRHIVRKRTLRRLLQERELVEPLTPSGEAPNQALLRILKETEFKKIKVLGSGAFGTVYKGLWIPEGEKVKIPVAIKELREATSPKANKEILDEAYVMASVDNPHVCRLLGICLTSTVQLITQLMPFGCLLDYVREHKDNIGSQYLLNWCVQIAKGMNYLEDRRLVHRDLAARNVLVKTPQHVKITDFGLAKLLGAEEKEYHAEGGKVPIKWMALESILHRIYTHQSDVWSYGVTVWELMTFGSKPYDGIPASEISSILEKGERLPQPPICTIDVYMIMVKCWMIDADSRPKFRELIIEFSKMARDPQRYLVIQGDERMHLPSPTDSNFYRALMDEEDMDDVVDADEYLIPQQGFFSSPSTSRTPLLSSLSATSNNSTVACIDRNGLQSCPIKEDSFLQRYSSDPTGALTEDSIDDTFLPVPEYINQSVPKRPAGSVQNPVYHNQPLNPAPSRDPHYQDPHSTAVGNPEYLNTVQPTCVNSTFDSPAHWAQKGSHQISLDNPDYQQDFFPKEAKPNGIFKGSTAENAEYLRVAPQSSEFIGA
Chain of Mitogen-activated protein kinase 14 (Q16539 whole entry): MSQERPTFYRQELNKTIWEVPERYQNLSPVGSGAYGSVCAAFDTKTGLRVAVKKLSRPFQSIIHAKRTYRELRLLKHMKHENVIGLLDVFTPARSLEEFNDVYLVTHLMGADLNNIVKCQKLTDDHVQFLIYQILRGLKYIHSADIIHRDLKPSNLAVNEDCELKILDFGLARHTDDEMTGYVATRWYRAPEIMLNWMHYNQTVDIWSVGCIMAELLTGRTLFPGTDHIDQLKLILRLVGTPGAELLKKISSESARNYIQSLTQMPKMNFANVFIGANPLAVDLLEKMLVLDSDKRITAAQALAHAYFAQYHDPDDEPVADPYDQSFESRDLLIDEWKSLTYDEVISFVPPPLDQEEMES

Compound | IC50 (Homo sapiens) [nM] | IC50 [1] [nM] | IC50 [2] [nM] | also measured
CCCN1CCC(Oc2nccc(Nc3cc(NC(=O)c4ccnc(N5CCOCC5)c4)ccc3C)n2)CC1 | 410 | 50 | – | –
COc1cc2ncnc(Nc3cc(NC(=O)c4cccc(N5CCOCC5)c4)ccc3C)c2cc1OC | 16000 | 10 | > 33000 | –
Cc1ccc(NC(=O)c2ccnc(N3CCOCC3)c2)cc1Nc1cc(Cl)ncn1 | > 50000 | 240 | – | –
Cc1ccc(NC(=O)c2ccnc(N3CCOCC3)c2)cc1Nc1ccnc(Cl)n1 | 11000 | 10 | – | –
COc1cc2ncnc(Nc3cccc(NC(=O)c4ccccc4)c3)c2cc1OC | > 50000 | 140 | 5600 | –
COc1cc2ncnc(Nc3cc(NC(=O)c4ccccc4)c(Cl)cc3F)c2cc1OC | > 50000 | 510 | – | –
Cc1ccc(NC(=O)c2ccnc(N3CCOCC3)c2)cc1Nc1ccnc(OCCCN(C)C)n1 | 3200 | 30 | – | –
COc1cc2ncnc(Nc3cc(NC(=O)c4ccnc(N5CCOCC5)c4)ccc3C)c2cc1OCCN1CCOCC1 | 7800 | 20 | – | –
C[S+]([O-])c1ccc(-c2nc(-c3ccc(F)cc3)c(-c3ccncc3)[nH]2)cc1 (configuration not stated) [SB-203580] | 2000 | – | – | –
COc1cc2ncnc(Nc3ccc(C)c(NC(=O)c4ccccc4)c3)c2cc1OC | > 50000 | 2090 | 3200 | –
Cc1ccc(NC(=O)c2ccnc(N3CCOCC3)c2)cc1Nc1ccncn1 | 27000 | 210 | – | –
COc1cc2ncnc(Nc3cc(NC(=O)c4ccnc(N5CCOCC5)c4)ccc3C)c2cc1OCCN(C)C | 6900 | 30 | – | –
COc1cc2ncnc(Nc3cc(NC(=O)c4ccnc(N5CCOCC5)c4)ccc3C)c2cc1OCCN1CCCCC1 | 4600 | 50 | – | –
Cc1ccc(NC(=O)c2ccnc(N3CCOCC3)c2)cc1Nc1ccnc(OC2CCN(C)CC2)n1 | 500 | 40 | – | –
COc1cc2ncnc(Nc3cc(NC(=O)c4ccccc4)ccc3Cl)c2cc1OC | > 50000 | 80 | 11000 | –
COc1cc2ncnc(Nc3ccc(Cl)c(NC(=O)c4cccc(N(C)C)c4)c3)c2cc1OC | > 50000 | 1690 | 1000 | –
Cc1ccc(NC(=O)c2ccnc(N3CCOCC3)c2)cc1Nc1cc(N2CCCN(C)CC2)ncn1 | > 50000 | 1220 | – | –
Cc1ccc(NC(=O)c2ccnc(N3CCOCC3)c2)cc1Nc1ccnc(NCCCN2CCCC2)n1 | 16000 | 50 | – | –

Compound | IC50 (Homo sapiens) [nM] | IC50 [1] [nM] | IC50 [2] [nM] | also measured
Cc1ccc(NC(=O)c2ccnc(N3CCOCC3)c2)cc1Nc1ccnc(OCC(C)(C)CN(C)C)n1 | 3700 | 70 | – | –
COc1cc2ncnc(Nc3cccc(NC(=O)c4ccccc4)c3F)c2cc1OC | > 50000 | 690 | 2800 | –
COc1cc2ncnc(Nc3cc(NC(=O)c4ccccc4)c(F)cc3F)c2cc1OC | > 50000 | 50 | 490 | –
CCN(CC)CCCNc1cc(Nc2cc(NC(=O)c3ccnc(N4CCOCC4)c3)ccc2C)ncn1 | 23000 | 280 | – | –
COc1cc2ncnc(Nc3cc(NC(=O)c4ccccc4)ccc3C)c2cc1OC | 21000 | 70 | > 33000 | –
CCCN1CCC(Oc2nccc(Nc3cc(NC(=O)c4cccc(N5CCOCC5)c4)ccc3C)n2)CC1 | 300 | 40 | – | –
COc1cc2ncnc(Nc3cccc(Cl)c3)c2cc1OC [TYRPHOSTIN AG-1478] | > 50000 | 560 | – | –
Cc1ccc(NC(=O)c2ccnc(N3CCOCC3)c2)cc1Nc1ccnc(N(C)C2CCN(C)CC2)n1 | 5300 | 80 | – | –
C=CCN(C)c1nccc(Nc2cc(NC(=O)c3ccnc(N4CCOCC4)c3)ccc2C)n1 | > 50000 | 110 | – | –
COc1cc2ncnc(Nc3cc(NC(=O)c4cccc(N(C)C)c4)ccc3Cl)c2cc1OC | > 50000 | 40 | 29000 | –
COc1cc2ncnc(Nc3ccc(Cl)c(NC(=O)c4ccccc4)c3)c2cc1OC | > 50000 | 610 | 2200 | –
Cc1ccc(NC(=O)c2ccnc(N3CCOCC3)c2)cc1Nc1cc(NCCCN2CCCC2)ncn1 | > 50000 | 450 | – | –
Cc1ccc(NC(=O)c2ccnc(N3CCOCC3)c2)cc1Nc1ccnc(NCCCN2CCOCC2)n1 | > 50000 | 90 | – | –
CSc1nccc(Nc2cc(NC(=O)c3cc(F)cc(N4CCOCC4)c3)ccc2C)n1 | 3400 | 10 | – | bioavailability [3]: 26%; bioavailability [4]: 26%; clearance [5]: 25 mL/min/kg; CL/F [6]: 25 mL/min/kg; Vd [7]: 0.8 L/kg; Distribution [8]: 0.8 L/kg
Cc1ccc(NC(=O)c2ccnc(N3CCOCC3)c2)cc1Nc1ccnc(OCC2CCCN(C)C2)n1 (configuration not stated) | 1100 | 30 | – | –
COc1cc2ncnc(Nc3cc(NC(=O)c4ccnc(N5CCOCC5)c4)ccc3C)c2cc1OCCN(C(C)C)C(C)C | 3500 | 50 | – | solubility (Aqueous solubility): 240 µM (≈ 147 µg/mL); Binding [9]: 83%; logD [10]: 3.5
COc1cc2ncnc(Nc3cccc(NC(=O)c4cccc(N(C)C)c4)c3)c2cc1OC | > 50000 | 210 | > 33000 | –
COc1cc2ncnc(Nc3cc(NC(=O)c4cccc(N(C)C)c4)ccc3C)c2cc1OC | 35000 | 30 | > 33000 | –

Reference: ChEMBL document CHEMBL1138000, “Novel, potent and selective anilinoquinazoline and anilinopyrimidine inhibitors of p38 MAP kinase” (Bioorg Med Chem Lett, 2004)
